Source: PMC4273293 (2014)

Tests used:
[1] = system: Fa2T (DNA, G4) ACAGGGGTGTGGGGACAGGGGTGTGGGG; test: FRET melting; details: K+ 10 mM, Li+ 90 mM, Na+ 10 mM; cacodylate buffer, pH 7.2; DNA 0.2 µM; ligand–DNA ratio 5.0
[2] = system: ILPR-DNA a2 (DNA, G4) ACAGGGGTGTGGGGACAGGGGTGTGGGG; test: fluorimetric titration; details: K+ 95 mM, potassium phosphate buffer, pH 7.0, 20 °C, DNA concentration in nucleotide bases, per base
[3] = system: 22AG (DNA, G4) AGGGTTAGGGTTAGGGTTAGGG; test: CD spectroscopy (induced CD)
[4] = system: 22AG (DNA, G4) AGGGTTAGGGTTAGGGTTAGGG; test: fluorimetric titration; details: K+ 95 mM; 20 °C; DNA concentration in oligonucleotide

Row | Compound | ΔTm [1] [°C] | Kb^a2 [2] [M⁻¹] | binding [3] | Kb^22AG [4] [M⁻¹] | Kb^a2 ([2]; site 1 of 2) [M⁻¹]
1 | COc1cc2cc3c4cc(OC)c(OC)cc4cc[n+]3c(C)c2cc1OC | 3.1 ± 0.5 | 2.5e+06 |  |  | 
2 | C[n+]1ccc(-c2c3nc(c(-c4cc[n+](C)cc4)c4ccc([nH]4)c(-c4cc[n+](C)cc4)c4nc(c(-c5cc[n+](C)cc5)c5ccc2[nH]5)C=C4)C=C3)cc1 | 6.3 ± 0.5 | 2.2e+06 |  |  | 
3 | CN1C(=Cc2cc[n+](C)c3ccccc23)Sc2ccccc21 | 1.8 ± 0.5 | 300000 | yes |  | 
4 | c1cc[n+]2cc3c(cc2c1)c1cc2cccc[n+]2cc1c1c2c[n+]4ccccc4cc2c2cc4cccc[n+]4cc2c31 | 5.8 ± 0.5 | 3.5e+06 |  |  | 
5 | CN1C(=CC=C(C=Cc2sc3ccccc3[n+]2C)C=Cc2sc3ccccc3[n+]2C)Sc2ccccc21 | 4.9 ± 0.5 | 1.2e+06 |  |  | 
6 | C[n+]1cc(NC(=O)c2cccc(C(=O)Nc3cc4ccccc4[n+](C)c3)n2)cc2ccccc21 | 14.9 ± 0.5 | 2.4e+06 |  |  | 

Continued, values first:

Row | ΔTm [1] [°C] | Kb^a2 [2] [M⁻¹] | binding [3] | Kb^22AG [4] [M⁻¹] | Kb^a2 ([2]; site 1 of 2) [M⁻¹] | Compound
7 | 3.7 ± 0.5 |  |  | 900000 | 5.5e+06 | CN1C(=CC=C(C=Cc2ccc3ccccc3[n+]2C)C=Cc2ccc3ccccc3[n+]2C)C(C)(C)c2ccccc21
8 | 3.4 ± 0.5 |  |  | 390000 | 1.7e+07 | CN1C(=CC=C(C=CC2=[N+](C)c3ccccc3C2(C)C)C=CC2=[N+](C)c3ccccc3C2(C)C)C=Cc2ccccc21
9 | 3.5 ± 0.5 | 200000 |  | 200000 |  | CN1C=CC(=CC=C(C=Cc2cc[n+](C)c3ccccc23)C=Cc2cc[n+](C)c3ccccc23)c2ccccc21
10 | 14.5 ± 0.5 | 2.7e+06 |  | 200000 |  | CN1C(=CC=C(C=Cc2ccc3ccccc3[n+]2C)C=Cc2ccc3ccccc3[n+]2C)C=Cc2ccccc21
